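Tested at 5 concentrations; 48 h exposure; 96-well plates; endpoints linearly interpolated, else capped at highest concentration. Here, GI50 denotes the concentration required for 50% inhibition of growth.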 Activity calls are given as the source filed them. No stated cut-off is given here; in the data, active = GI50 up to about 1.1 µM and inactive = higher.
Columns and labels:
Assay in all cases: NCI-60 cell line screen, 48 h
NCI-H226 = test system: NCI-H226
EKVX = test system: EKVX
BT-549 = test system: BT-549
CAKI-1 = test system: CAKI-1
786-0 = test system: 786-0
HOP-62 = test system: HOP-62
SN12C = test system: SN12C
SK-OV-3 = test system: SK-OV-3
U-251 = test system: U-251
SW-620 = test system: SW-620
MCF7 = test system: MCF7
KM12 = test system: KM12
T47D = test system: T47D
OVCAR-5 = test system: OVCAR-5
TK-10 = test system: TK-10
SF-295 = test system: SF-295
SNB-75 = test system: SNB-75

Row | Compound | GI50 (NCI-H226) | GI50 (EKVX) | GI50 (BT-549) | GI50 (CAKI-1) | GI50 (786-0) | GI50 (HOP-62) | GI50 (SN12C) | GI50 (SK-OV-3) | GI50 (U-251) | GI50 (SW-620) | GI50 (MCF7) | GI50 (KM12) | GI50 (T47D) | GI50 (OVCAR-5) | GI50 (TK-10) | GI50 (SF-295) | GI50 (SNB-75)
1 | CN(C)CCCNc1ncnc2[nH]cnc12 | > 100 µM (inactive) | > 100 µM (inactive) | > 100 µM (inactive) | > 100 µM (inactive) | > 100 µM (inactive) | > 100 µM (inactive) | > 100 µM (inactive) | > 100 µM (inactive) | > 100 µM (inactive) | > 100 µM (inactive) | > 100 µM (inactive) | > 100 µM (inactive) | > 100 µM (inactive) | > 100 µM (inactive) | > 100 µM (inactive) | > 100 µM (inactive) | –
2 | Sc1ncc2[nH]nnc2n1 | > 100 µM (inactive) | > 100 µM (inactive) | > 100 µM (inactive) | > 100 µM (inactive) | > 100 µM (inactive) | > 100 µM (inactive) | > 100 µM (inactive) | – | > 100 µM (inactive) | > 100 µM (inactive) | > 100 µM (inactive) | > 100 µM (inactive) | – | > 100 µM (inactive) | > 100 µM (inactive) | > 100 µM (inactive) | > 100 µM (inactive)
3 | NNc1nnc(-c2nnc(NN)o2)o1 | > 10 µM (inactive) | > 10 µM (inactive) | > 10 µM (inactive) | > 10 µM (inactive) | > 10 µM (inactive) | > 10 µM (inactive) | > 10 µM (inactive) | – | > 10 µM (inactive) | > 10 µM (inactive) | > 10 µM (inactive) | > 10 µM (inactive) | > 10 µM (inactive) | > 10 µM (inactive) | > 10 µM (inactive) | > 10 µM (inactive) | –
4 | CCOC(=O)NC(=S)NN(C)C1=NCC(C)(C)S1 | – | > 100 µM (inactive) | > 100 µM (inactive) | > 100 µM (inactive) | > 100 µM (inactive) | > 100 µM (inactive) | > 100 µM (inactive) | > 100 µM (inactive) | > 100 µM (inactive) | > 100 µM (inactive) | > 100 µM (inactive) | > 100 µM (inactive) | > 100 µM (inactive) | > 100 µM (inactive) | > 100 µM (inactive) | > 100 µM (inactive) | > 100 µM (inactive)
5 | CC(C)=CC(=O)c1[nH]c2ccccc2c1CC(=O)NCCc1c[nH]cn1 | > 100 µM (inactive) | > 100 µM (inactive) | > 100 µM (inactive) | > 100 µM (inactive) | > 100 µM (inactive) | – | > 100 µM (inactive) | > 100 µM (inactive) | > 100 µM (inactive) | > 100 µM (inactive) | > 100 µM (inactive) | > 100 µM (inactive) | > 100 µM (inactive) | > 100 µM (inactive) | > 100 µM (inactive) | > 100 µM (inactive) | > 100 µM (inactive)
6 | CN1C2CCC1CC(CC(=O)NC(c1ccc(F)cc1)c1ccc(F)cc1)C2 (configuration not stated) | > 100 µM (inactive) | > 100 µM (inactive) | > 100 µM (inactive) | > 100 µM (inactive) | 64.7 µM (inactive) | > 100 µM (inactive) | > 100 µM (inactive) | > 100 µM (inactive) | > 100 µM (inactive) | > 100 µM (inactive) | – | > 100 µM (inactive) | > 100 µM (inactive) | > 100 µM (inactive) | > 100 µM (inactive) | > 100 µM (inactive) | > 100 µM (inactive)
7 | CC1OC(OC2C(OC(=O)[C@]34CCC(C)(C)C[C@H]3C3=CC[C@@H]5[C@@]6(C)CC[C@H](OC7OC(C(=O)O)C(O)C(O)C7O)C(C)(C)[C@@H]6CC[C@@]5(C)[C@]3(C)C[C@H]4O)OCC(O)C2O)C(O)C(O)C1OC1OCC(OC2OCC(O)C(O)C2O)C(O)C1O (some centres not stated) | 6.92 µM (inactive) | 4.16 µM (inactive) | 3.28 µM (inactive) | 9.73 µM (inactive) | 11.1 µM (inactive) | 13.2 µM (inactive) | 2.42 µM (inactive) | 13.8 µM (inactive) | 7.85 µM (inactive) | 10.9 µM (inactive) | 5.07 µM (inactive) | 3.61 µM (inactive) | 7.16 µM (inactive) | 6.75 µM (inactive) | – | 10.2 µM (inactive) | 13.2 µM (inactive)
8 | Cn1c(=O)c2c(nc(NCCCCl)n2CC(=O)NCCCCl)n(C)c1=O | > 100 µM (inactive) | > 100 µM (inactive) | > 100 µM (inactive) | > 100 µM (inactive) | > 100 µM (inactive) | > 100 µM (inactive) | > 100 µM (inactive) | > 100 µM (inactive) | > 100 µM (inactive) | > 100 µM (inactive) | – | > 100 µM (inactive) | > 100 µM (inactive) | > 100 µM (inactive) | > 100 µM (inactive) | > 100 µM (inactive) | > 100 µM (inactive)
9 | CC(=O)OCC1OC(n2ncc(=O)[nH]c2=O)C(OC(C)=O)C1OC(C)=O (configuration not stated) | 15.3 µM (inactive) | – | – | 9.4 µM (inactive) | 4.04 µM (inactive) | 21.7 µM (inactive) | 34.4 µM (inactive) | 61.2 µM (inactive) | 1.09 µM (active) | 1.4 µM (inactive) | 15.6 µM (inactive) | 11.3 µM (inactive) | > 100 µM (inactive) | > 100 µM (inactive) | > 100 µM (inactive) | 5.27 µM (inactive) | 40.3 µM (inactive)
10 | COC(=O)C1=C(C(=O)OC)C(OO)(c2ccccc2)OC1=O (configuration not stated) | > 100 µM (inactive) | > 100 µM (inactive) | > 100 µM (inactive) | > 100 µM (inactive) | 36.5 µM (inactive) | – | 86.3 µM (inactive) | > 100 µM (inactive) | 37.4 µM (inactive) | > 100 µM (inactive) | 52.1 µM (inactive) | > 100 µM (inactive) | > 100 µM (inactive) | 40.6 µM (inactive) | > 100 µM (inactive) | > 100 µM (inactive) | 50.7 µM (inactive)
11 | CC1CCC(O)(C(C)(C(=O)O)c2ccccc2)CC1 (configuration not stated) | 91.6 µM (inactive) | > 100 µM (inactive) | > 100 µM (inactive) | 57.4 µM (inactive) | > 100 µM (inactive) | 68.1 µM (inactive) | > 100 µM (inactive) | – | 64 µM (inactive) | > 100 µM (inactive) | – | > 100 µM (inactive) | > 100 µM (inactive) | > 100 µM (inactive) | > 100 µM (inactive) | > 100 µM (inactive) | –
12 | Cn1c(=O)n2n(c1=O)C([S+]([O-])c1ccccc1)C2 (configuration not stated) | – | > 100 µM (inactive) | > 100 µM (inactive) | > 100 µM (inactive) | > 100 µM (inactive) | > 100 µM (inactive) | > 100 µM (inactive) | > 100 µM (inactive) | > 100 µM (inactive) | > 100 µM (inactive) | > 100 µM (inactive) | 42.8 µM (inactive) | – | > 100 µM (inactive) | > 100 µM (inactive) | > 100 µM (inactive) | > 100 µM (inactive)
13 | CC(=O)/C(=C/NC(=S)Nc1ccccc1)C(=O)Nc1ccccc1C | > 100 µM (inactive) | > 100 µM (inactive) | – | 40.9 µM (inactive) | > 100 µM (inactive) | > 100 µM (inactive) | > 100 µM (inactive) | > 100 µM (inactive) | > 100 µM (inactive) | > 100 µM (inactive) | > 100 µM (inactive) | > 100 µM (inactive) | 52.4 µM (inactive) | > 100 µM (inactive) | > 100 µM (inactive) | > 100 µM (inactive) | 49.9 µM (inactive)
14 | COc1ccc(C2(O)C(S(=O)(=O)c3ccc(C)cc3)=Cc3ccc(OC)cc32)cc1 (configuration not stated) | > 100 µM (inactive) | 78.2 µM (inactive) | – | – | 41 µM (inactive) | 21.2 µM (inactive) | 73.8 µM (inactive) | 35.6 µM (inactive) | 41.2 µM (inactive) | > 100 µM (inactive) | 35 µM (inactive) | > 100 µM (inactive) | 69.5 µM (inactive) | > 100 µM (inactive) | 46.5 µM (inactive) | 28.2 µM (inactive) | 25.9 µM (inactive)
15 | NC(=O)C(=CNC(=S)Nc1cccc(C(F)(F)F)c1)C(N)=O | > 100 µM (inactive) | – | – | 28.4 µM (inactive) | > 100 µM (inactive) | > 100 µM (inactive) | > 100 µM (inactive) | > 100 µM (inactive) | > 100 µM (inactive) | > 100 µM (inactive) | > 100 µM (inactive) | > 100 µM (inactive) | > 100 µM (inactive) | > 100 µM (inactive) | > 100 µM (inactive) | > 100 µM (inactive) | 51.9 µM (inactive)
16 | OCC1C(OCc2ccccc2)C(OCc2ccccc2)C(OCc2ccccc2)CN1Cc1ccccc1 (configuration not stated) | 33.8 µM (inactive) | 84.9 µM (inactive) | – | > 100 µM (inactive) | 26.3 µM (inactive) | 33 µM (inactive) | 14.5 µM (inactive) | > 100 µM (inactive) | 27.3 µM (inactive) | 53 µM (inactive) | 14.2 µM (inactive) | 16.8 µM (inactive) | 22.6 µM (inactive) | 37.5 µM (inactive) | 42.8 µM (inactive) | 30.3 µM (inactive) | 13 µM (inactive)
17 | CC(C)(Cl)C(Br)CCC(C)(Cl)C(Br)CBr (configuration not stated) | 25.4 µM (inactive) | 32.1 µM (inactive) | 13.3 µM (inactive) | – | 24.5 µM (inactive) | 24.9 µM (inactive) | 22.1 µM (inactive) | 39.2 µM (inactive) | 24.1 µM (inactive) | 27.5 µM (inactive) | 17.6 µM (inactive) | – | 30.5 µM (inactive) | 18.7 µM (inactive) | 35.4 µM (inactive) | 20.2 µM (inactive) | 25.1 µM (inactive)
18 | Cc1ccc2c(O)cc(-c3ccc4ccccc4c3)nc2n1 | 5.81 µM (inactive) | 5.96 µM (inactive) | 27.4 µM (inactive) | – | 3.94 µM (inactive) | 7.13 µM (inactive) | 5.3 µM (inactive) | 3.37 µM (inactive) | – | 2.8 µM (inactive) | 2.28 µM (inactive) | 3.21 µM (inactive) | 7 µM (inactive) | 19.3 µM (inactive) | 8.45 µM (inactive) | – | 2.75 µM (inactive)
